Measurements: PubChem BioAssay (NCI)
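96-well plates; 48 h exposure; 5 concentrations. Endpoints by linear interpolation between flanking doses. Not reached: highest tested concentration assigned. GI50 = concentration required for 50% inhibition of growth. TGI is the concentration that stops growth completely.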

What was measured:
Assay in all cases: NCI anticancer screen, dose series, 48 h
786-0 renal = system: 786-0 renal
A498 renal = system: A498 renal
A549 NSCLC = system: A549 NSCLC
ACHN renal = system: ACHN renal
CAKI-1 renal = system: CAKI-1 renal
CCRF-CEM leukemia = system: CCRF-CEM leukemia
COLO 205 colon = system: COLO 205 colon
DU-145 prostate = system: DU-145 prostate
EKVX NSCLC = system: EKVX NSCLC
HCC-2998 colon = system: HCC-2998 colon
HCT-116 colon = system: HCT-116 colon
HCT-15 colon = system: HCT-15 colon
HL-60(TB) leukemia = system: HL-60(TB) leukemia
HOP-62 NSCLC = system: HOP-62 NSCLC
HOP-92 NSCLC = system: HOP-92 NSCLC
HT29 colon = system: HT29 colon
IGROV1 ovarian = system: IGROV1 ovarian
K-562 leukemia = system: K-562 leukemia
KM12 colon = system: KM12 colon
LOX IMVI melanoma = system: LOX IMVI melanoma
M14 melanoma = system: M14 melanoma
MALME-3M melanoma = system: MALME-3M melanoma
MCF7 breast = system: MCF7 breast
MDA-MB-231 breast = system: MDA-MB-231 breast
MDA-MB-435 = system: MDA-MB-435
MOLT-4 leukemia = system: MOLT-4 leukemia
NCI-H226 lung = system: NCI-H226 lung
NCI-H23 lung = system: NCI-H23 lung
NCI-H460 lung = system: NCI-H460 lung
NCI-H522 lung = system: NCI-H522 lung
NCI/ADR-RES ovarian = system: NCI/ADR-RES ovarian
OVCAR-3 ovarian = system: OVCAR-3 ovarian
OVCAR-4 ovarian = system: OVCAR-4 ovarian
OVCAR-5 ovarian = system: OVCAR-5 ovarian
OVCAR-8 ovarian = system: OVCAR-8 ovarian
PC-3 prostate = system: PC-3 prostate
RPMI-8226 leukemia = system: RPMI-8226 leukemia
RXF 393 renal = system: RXF 393 renal
SF-268 CNS = system: SF-268 CNS
SF-295 CNS = system: SF-295 CNS
SF-539 CNS = system: SF-539 CNS
SK-MEL-2 melanoma = system: SK-MEL-2 melanoma
SK-MEL-28 melanoma = system: SK-MEL-28 melanoma
SK-MEL-5 melanoma = system: SK-MEL-5 melanoma
SK-OV-3 ovarian = system: SK-OV-3 ovarian
SN12C renal = system: SN12C renal
SNB-19 CNS = system: SNB-19 CNS
SNB-75 CNS = system: SNB-75 CNS
SR leukemia = system: SR leukemia
SW-620 colon = system: SW-620 colon
T-47D breast = system: T-47D breast
TK-10 renal = system: TK-10 renal
U251 CNS = system: U251 CNS
UACC-257 melanoma = system: UACC-257 melanoma
UACC-62 melanoma = system: UACC-62 melanoma
UO-31 renal = system: UO-31 renal

## COc1cc(C2CC(c3ccc(SC)cc3)=NN2C(C)=O)cc(OC)c1OC (configuration not stated)
786-0 renal
  GI50: 14.1 µM
  TGI: 70.4 µM
A498 renal
  GI50: 12.6 µM
  TGI: 49.3 µM
A549 NSCLC
  GI50: 9.63 µM
  TGI: > 100 µM
ACHN renal
  GI50: 18.2 µM
  TGI: > 100 µM
CAKI-1 renal
  GI50: 7.11 µM
  TGI: 70 µM
CCRF-CEM leukemia
  GI50: 9.49 µM
  TGI: > 100 µM
COLO 205 colon
  GI50: 5.38 µM
  TGI: 21.6 µM
DU-145 prostate
  GI50: 16.5 µM
  TGI: 50.6 µM
EKVX NSCLC
  GI50: 17.7 µM
  TGI: > 100 µM
HCC-2998 colon
  GI50: 12.1 µM
  TGI: 38.7 µM
HCT-116 colon
  GI50: 4.28 µM
  TGI: 21 µM
HCT-15 colon
  GI50: 5.09 µM
  TGI: > 100 µM
HL-60(TB) leukemia
  GI50: 2.68 µM
  TGI: 12.1 µM
HOP-62 NSCLC
  GI50: 16.1 µM
  TGI: 66.3 µM
HOP-92 NSCLC
  GI50: 16 µM
  TGI: 97.1 µM
HT29 colon
  GI50: 4.2 µM
  TGI: > 100 µM
IGROV1 ovarian
  GI50: 6.38 µM
  TGI: > 100 µM
K-562 leukemia
  GI50: 3.47 µM
  TGI: 20.8 µM
KM12 colon
  GI50: 3.89 µM
  TGI: 44.9 µM
LOX IMVI melanoma
  GI50: 7.1 µM
  TGI: > 100 µM
M14 melanoma
  GI50: 3.91 µM
  TGI: 38.4 µM
MALME-3M melanoma
  GI50: 53.6 µM
  TGI: > 100 µM
MCF7 breast
  GI50: 4.47 µM
  TGI: 77.5 µM
MDA-MB-231 breast
  GI50: 20.1 µM
  TGI: > 100 µM
MDA-MB-435
  GI50: 1.95 µM
  TGI: 5.55 µM
MOLT-4 leukemia
  GI50: 5.2 µM
  TGI: > 100 µM
NCI-H226 lung
  GI50: 19.8 µM
  TGI: 45.6 µM
NCI-H23 lung
  GI50: 24.3 µM
  TGI: > 100 µM
NCI-H460 lung
  GI50: 4.14 µM
  TGI: 16.9 µM
NCI-H522 lung
  GI50: 23.8 µM
  TGI: > 100 µM
NCI/ADR-RES ovarian
  GI50: 7.56 µM
  TGI: > 100 µM
OVCAR-3 ovarian
  GI50: 3.76 µM
  TGI: 22.8 µM
OVCAR-4 ovarian
  GI50: 34.2 µM
  TGI: > 100 µM
OVCAR-5 ovarian
  GI50: 44.5 µM
  TGI: > 100 µM
OVCAR-8 ovarian
  GI50: 25.2 µM
  TGI: > 100 µM
PC-3 prostate
  GI50: 16.2 µM
  TGI: > 100 µM
RPMI-8226 leukemia
  GI50: 6.51 µM
  TGI: 96 µM
RXF 393 renal
  GI50: 13.2 µM
  TGI: 43.6 µM
SF-268 CNS
  GI50: 11.9 µM
  TGI: > 100 µM
SF-295 CNS
  GI50: 1.23 µM
  TGI: 4.64 µM
SF-539 CNS
  GI50: 10 µM
  TGI: 38 µM
SK-MEL-2 melanoma
  GI50: 10.5 µM
  TGI: 60.3 µM
SK-MEL-28 melanoma
  GI50: 16.6 µM
  TGI: > 100 µM
SK-MEL-5 melanoma
  GI50: 4.04 µM
  TGI: 16.1 µM
SK-OV-3 ovarian
  GI50: 17.1 µM
  TGI: 95.9 µM
SN12C renal
  GI50: 28.5 µM
  TGI: > 100 µM
SNB-19 CNS
  GI50: 7.04 µM
  TGI: > 100 µM
SNB-75 CNS
  GI50: 4.99 µM
  TGI: 50.9 µM
SR leukemia
  GI50: 1.94 µM
  TGI: 14.2 µM
SW-620 colon
  GI50: 4.49 µM
  TGI: > 100 µM
T-47D breast
  GI50: 8.9 µM
  TGI: > 100 µM
TK-10 renal
  GI50: 22.9 µM
  TGI: 78.1 µM
U251 CNS
  GI50: 7.27 µM
  TGI: > 100 µM
UACC-257 melanoma
  GI50: 42 µM
  TGI: > 100 µM
UACC-62 melanoma
  GI50: 9.86 µM
  TGI: > 100 µM
UO-31 renal
  GI50: 15.9 µM
  TGI: 77.4 µM
